Results reported in patent US9850216B2 (H. LEE MOFFITT CANCER CENTER AND RESEARCH INSTITUTE, INC., priority 2013, dated 2017).
“And” between values parts separate entries of the source, which are not always exact repeats. Equal values may be shown once. Read-outs that look alike come from different tables or passages of the source.

How the values were obtained:
ACK1 = ACK1 (Homo sapiens, UniProt Q07912); assay: ACK1 ELISA: phosphorylation of AKT-derived peptide; assay type: biochemical; conditions: Table 1, replicate values listed
Chain of ACK1 (Q07912 whole entry): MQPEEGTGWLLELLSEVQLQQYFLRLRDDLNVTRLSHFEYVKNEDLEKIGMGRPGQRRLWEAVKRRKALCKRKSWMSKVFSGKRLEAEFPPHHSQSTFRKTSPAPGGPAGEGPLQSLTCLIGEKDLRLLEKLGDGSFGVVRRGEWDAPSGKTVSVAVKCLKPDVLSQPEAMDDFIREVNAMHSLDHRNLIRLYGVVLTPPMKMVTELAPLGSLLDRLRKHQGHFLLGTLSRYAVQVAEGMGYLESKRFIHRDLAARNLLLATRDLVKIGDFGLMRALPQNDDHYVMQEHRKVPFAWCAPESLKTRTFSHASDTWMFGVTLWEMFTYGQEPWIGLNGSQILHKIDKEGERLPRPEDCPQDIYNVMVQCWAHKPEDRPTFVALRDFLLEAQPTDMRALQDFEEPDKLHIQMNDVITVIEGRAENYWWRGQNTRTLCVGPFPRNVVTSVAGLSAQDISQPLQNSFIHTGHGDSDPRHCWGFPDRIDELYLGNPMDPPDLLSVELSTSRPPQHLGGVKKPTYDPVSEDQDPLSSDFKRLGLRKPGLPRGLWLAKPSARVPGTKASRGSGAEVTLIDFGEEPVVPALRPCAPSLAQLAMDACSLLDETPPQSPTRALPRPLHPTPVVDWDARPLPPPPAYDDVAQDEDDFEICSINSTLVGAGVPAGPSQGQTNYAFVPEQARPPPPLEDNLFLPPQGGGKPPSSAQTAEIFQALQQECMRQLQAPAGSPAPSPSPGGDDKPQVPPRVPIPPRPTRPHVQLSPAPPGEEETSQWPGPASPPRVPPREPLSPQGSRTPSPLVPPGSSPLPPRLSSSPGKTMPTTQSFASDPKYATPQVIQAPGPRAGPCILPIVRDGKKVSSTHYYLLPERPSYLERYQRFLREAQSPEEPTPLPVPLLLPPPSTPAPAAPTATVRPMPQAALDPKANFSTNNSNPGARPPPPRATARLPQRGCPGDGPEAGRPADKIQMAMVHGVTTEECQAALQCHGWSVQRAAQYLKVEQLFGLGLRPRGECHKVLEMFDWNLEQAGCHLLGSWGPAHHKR

[1] = 10 μM, read-out: % Inhibition at 10 μM (ELISA)

SMILES | % Inhibition at 10 μM (ELISA) (ACK1; 10 μM) | inhibition at 10 µM (ACK1; [1]) [%] | melting point | inhibition at 10 µM (ACK1; read-out: % Inhibition at 10 μM (ELISA), 10 μM) [%]
CN1CCN(c2ccc(Nc3ncc(F)c(NCC4CCCO4)n3)cc2)CC1 (stereo not shown) [DZ1-098, 5-fluoro-N2-(4-(4-methylpiperazin-1-yl)phenyl)-N4-((tetrahydrofuran-2-yl)methyl)pyrimidine-2,4-diamine] | 48% | 61 | 86 °C (dec.) | –
Cc1cnc(Nc2ccc(N3CCN(C)CC3)cc2)nc1NCC1CCCO1 (stereo not shown) [DZ1-100, 5-methyl-N2-(4-(4-methylpiperazin-1-yl)phenyl)-N4-((tetrahydrofuran-2-yl)methyl)pyrimidine-2,4-diamine] | 85% and 54% and 5% and 10% | – | 151.7 °C (dec.) | –
CN1CCN(c2ccc(Nc3nc(NCC4CCCO4)c4ccccc4n3)cc2)CC1 (stereo not shown) [DZ1-106, N2-(4-(4-methylpiperazin-1-yl)phenyl)-N4-((tetrahydrofuran-2-yl)methyl)quinazoline-2,4-diamine] | 14% | 19 | 60.1 °C (dec.) | –
CCc1cnc(Nc2ccc(N3CCN(C)CC3)cc2)nc1NCC1CCCO1 (stereo not shown) [DZ1-108, 5-ethyl-N2-(4-(4-methylpiperazin-1-yl)phenyl)-N4-((tetrahydrofuran-2-yl)methyl)pyrimidine-2,4-diamine] | 72% and 48% and 34% and 46% | – | 209.5 °C (dec.) | –
Cc1cnc(Nc2ccc(O)cc2)nc1NCC1CCCO1 (stereo not shown) [DZ1-116, 4-(5-methyl-4-((tetrahydrofuran-2-yl)methylamino)pyrimidin-2-ylamino)phenol] | 15% and 5% | – | 145.4 °C (dec.) | –
Cl.O=C(O)Cc1ccc(Nc2ncc(Br)c(NCC3CCCO3)n2)cc1 (stereo not shown) [NT1-022, 2-(4-(5-Bromo-4-((tetrahydrofuran-2-yl)methylamino)pyrimidin-2-ylamino)phenyl)acetic acid] | 63% | 59 | 120 °C (dec.) | –
O=C(O)CCCc1ccc(Nc2ncc(Cl)c(NCC3CCCO3)n2)cc1 (stereo not shown) [NT1-025, 4-(4-(5-Chloro-4-((tetrahydrofuran-2-yl)methylamino)pyrimidin-2-ylamino)phenyl)butanoic acid] | 65% | – | 180 °C (dec.) | 61
Cl.O=C(O)CCCc1ccc(Nc2ncc(Cl)c(NC[C@H]3CCCO3)n2)cc1 [NT1-026, (R)-4-(4-(5-Chloro-4-((tetrahydrofuran-2-yl)methylamino)pyrimidin-2-ylamino)phenyl)butanoic acid] | 65% | 55 | 180 °C (dec.) | –
Cl.O=C(O)CCCc1ccc(Nc2ncc(Cl)c(NC[C@@H]3CCCO3)n2)cc1 [NT1-027, (S)-4-(4-(5-Chloro-4-((tetrahydrofuran-2-yl)methylamino)pyrimidin-2-ylamino)phenyl)butanoic acid] | 64% | 52 | 180 °C (dec.) | –
CSc1ccccc1Nc1nc(Cl)ncc1C(=O)Nc1c(F)cccc1Cl [YL7-031B2, 2-Chloro-N-(2-chloro-6-fluorophenyl)-4-(2-(methylthio)phenylamino)pyrimidine-5-carboxamide] | – | 0 | 204 to 206 °C | –
CS(=O)(=O)c1ccccc1Nc1nc(Cl)ncc1C(=O)Nc1c(F)cccc1Cl [YL7-034, 2-Chloro-N-(2-chloro-6-fluorophenyl)-4-(2-(methylsulfonyl)phenylamino)pyrimidine-5-carboxamide] | 16% and −3% and −6% | – | 211 to 214 °C | –
COc1ccc(Nc2ncc(C(=O)Nc3c(F)cccc3Cl)c(Nc3ccccc3S(C)(=O)=O)n2)cc1 [YL7-037, N-(2-chloro-6-fluorophenyl)-2-(4-methoxyphenylamino)-4-(2-(methylsulfonyl)phenylamino)pyrimidine-5-carboxamide] | 4% and 0% | – | 267 °C (dec.) | –
CS(=O)(=O)c1ccccc1Nc1nc(Nc2ccc(O)cc2)ncc1C(=O)Nc1c(F)cccc1Cl [YL7-038, N-(2-chloro-6-fluorophenyl)-2-(4-hydroxyphenylamino)-4-(2-(methylsulfonyl)phenylamino)pyrimidine-5-carboxamide] | 39% and 18% | – | 238 °C (dec.) | –
COc1ccc(Nc2ncc(C(=O)Nc3c(F)cccc3Cl)c(Nc3ccccc3SC)n2)cc1 [YL7-039-1, N-(2-chloro-6-fluorophenyl)-2-(4-methoxyphenylamino)-4-(2-(methylthio)phenylamino)pyrimidine-5-carboxamide] | 7% and 0% | – | 261 °C (dec.) | –
CSc1ccccc1Nc1nc(Nc2ccc(O)cc2)ncc1C(=O)Nc1c(F)cccc1Cl [YL7-039-2, N-(2-chloro-6-fluorophenyl)-2-(4-hydroxyphenylamino)-4-(2-(methylthio)phenylamino)pyrimidine-5-carboxamide] | 40% and 5% | – | 246 °C (dec.) | –
CC(C)Sc1ccccc1Nc1nc(Cl)ncc1C(=O)Nc1c(F)cccc1Cl [YL7-040, 2-Chloro-N-(2-chloro-6-fluorophenyl)-4-(2-(isopropylthio)phenylamino)pyrimidine-5-carboxamide] | – | 0 | 202 to 205 °C | –
CC(C)S(=O)(=O)c1ccccc1Nc1nc(Cl)ncc1C(=O)Nc1c(F)cccc1Cl [YL7-041, 2-Chloro-N-(2-chloro-6-fluorophenyl)-4-(2-(isopropylsulfonyl)phenylamino)pyrimidine-5-carboxamide] | 7% and −21% and −27% | – | 225 to 227 °C | –
COc1ccc(Nc2ncc(C(=O)Nc3c(F)cccc3Cl)c(Nc3ccccc3S(=O)(=O)C(C)C)n2)cc1 [YL7-045-1, N-(2-chloro-6-fluorophenyl)-4-(2-(isopropylsulfonyl)phenylamino)-2-(4-methoxyphenylamino)pyrimidine-5-carboxamide] | 37% and 18% | – | 246 °C (dec.) | –
CC(C)S(=O)(=O)c1ccccc1Nc1nc(Nc2ccc(O)cc2)ncc1C(=O)Nc1c(F)cccc1Cl [YL7-045-2, N-(2-chloro-6-fluorophenyl)-2-(4-hydroxyphenylamino)-4-(2-(isopropylsulfonyl)phenylamino)pyrimidine-5-carboxamide] | 50% | 47 | 168 °C (dec.) | –
COc1ccc(Nc2ncc(C(=O)Nc3c(F)cccc3Cl)c(Nc3ccccc3SC(C)C)n2)cc1 [YL7-045-3, N-(2-chloro-6-fluorophenyl)-4-(2-(isopropylthio)phenylamino)-2-(4-methoxyphenylamino)pyrimidine-5-carboxamide] | −15% and 0% | – | 237 to 240 °C | –
CC(C)Sc1ccccc1Nc1nc(Nc2ccc(O)cc2)ncc1C(=O)Nc1c(F)cccc1Cl [YL7-045-4, N-(2-chloro-6-fluorophenyl)-2-(4-hydroxyphenylamino)-4-(2-(isopropylthio)phenylamino)pyrimidine-5-carboxamide] | – | 0 | 232 °C (dec.) | –
CCCSc1ccccc1Nc1nc(Cl)ncc1C(=O)Nc1c(F)cccc1Cl [YL7-051, 2-Chloro-N-(2-chloro-6-fluorophenyl)-4-(2-(propylthio)phenylamino)pyrimidine-5-carboxamide] | – | 0 | 197 to 200 °C | –
CCCS(=O)(=O)c1ccccc1Nc1nc(Cl)ncc1C(=O)Nc1c(F)cccc1Cl [YL7-052, 2-Chloro-N-(2-chloro-6-fluorophenyl)-4-(2-(propylsulfonyl)phenylamino)pyrimidine-5-carboxamide] | 0% and 14% and −8% | – | 226 to 229 °C | –
CCSc1ccccc1Nc1nc(Cl)ncc1C(=O)Nc1c(F)cccc1Cl [YL7-053, 2-Chloro-N-(2-chloro-6-fluorophenyl)-4-(2-(ethylthio)phenylamino)pyrimidine-5-carboxamide] | – | 0 | 205 to 208 °C | –
CCS(=O)(=O)c1ccccc1Nc1nc(Cl)ncc1C(=O)Nc1c(F)cccc1Cl [YL7-054, 2-Chloro-N-(2-chloro-6-fluorophenyl)-4-(2-(ethylsulfonyl)phenylamino)pyrimidine-5-carboxamide] | 0% and −3% and −25% | – | 230 to 233 °C | –
CCCS(=O)(=O)c1ccccc1Nc1nc(Nc2ccc(OC)cc2)ncc1C(=O)Nc1c(F)cccc1Cl [YL7-055-1, N-(2-chloro-6-fluorophenyl)-2-(4-methoxyphenylamino)-4-(2-(propylsulfonyl)phenylamino)pyrimidine-5-carboxamide] | 27% and 13% | – | 234 to 235 °C | –
CCCS(=O)(=O)c1ccccc1Nc1nc(Nc2ccc(O)cc2)ncc1C(=O)Nc1c(F)cccc1Cl [YL7-055-2, N-(2-chloro-6-fluorophenyl)-2-(4-hydroxyphenylamino)-4-(2-(propylsulfonyl)phenylamino)pyrimidine-5-carboxamide] | 58% | 57 | 165 °C (dec.) | –
CCCSc1ccccc1Nc1nc(Nc2ccc(OC)cc2)ncc1C(=O)Nc1c(F)cccc1Cl [YL7-055-3, N-(2-chloro-6-fluorophenyl)-2-(4-methoxyphenylamino)-4-(2-(propylthio)phenylamino)pyrimidine-5-carboxamide] | 1% and 13% | – | 248 to 249 °C | –
CCCSc1ccccc1Nc1nc(Nc2ccc(O)cc2)ncc1C(=O)Nc1c(F)cccc1Cl [YL7-055-4, N-(2-chloro-6-fluorophenyl)-2-(4-hydroxyphenylamino)-4-(2-(propylthio)phenylamino)pyrimidine-5-carboxamide] | 27% | 28 | 208 °C (dec.) | –
